Assay results as given in patent publication US5330994A, “Tetrahydropyridine isoxazoline derivatives” (Warner-Lambert Company, priority 1992, dated 1994).
Counter-ions that a name gives are not always drawn.

Key:
sigma binding site = molecular target: T1, sigma binding site (Rattus norvegicus, UniProt Q9R0C9); assay: Sigma binding affinity using [^3 H]-(+)-3-(3'-hydroxyphenyl)-N-(1'-propyl)-piperdine (3PPP); settings: [^3 H]PPP radioligand
T1 construct: from tissue
Method: (§1) Sigma binding affinities are measured using [^3 H]-(+)-3-(3'-hydroxyphenyl)-N-(1'-propyl)-piperdine, referred to in the following Table I as 3PPP. This test is carried out according to the procedures of B. L. Largent, et al, Proc. Natl. Acad. Sci., USA, 1984; 81:5618. The ability of the compounds to bind muscarinic antagonist sites was determined invitro using [^3 H]quinuclidinyl benzylate (RQNB) according to the procedure of M. Watson, J. Pharmacol. Exp. Ther. 1986; 237-411.

[1] = tested on: muscarinic antagonist sites; assay: Binding to muscarinic antagonist sites using [^3 H]quinuclidinyl benzylate (RQNB); settings: [^3 H]quinuclidinyl benzylate radioligand
Method: as §1

T1 sequence (Q9R0C9 whole entry): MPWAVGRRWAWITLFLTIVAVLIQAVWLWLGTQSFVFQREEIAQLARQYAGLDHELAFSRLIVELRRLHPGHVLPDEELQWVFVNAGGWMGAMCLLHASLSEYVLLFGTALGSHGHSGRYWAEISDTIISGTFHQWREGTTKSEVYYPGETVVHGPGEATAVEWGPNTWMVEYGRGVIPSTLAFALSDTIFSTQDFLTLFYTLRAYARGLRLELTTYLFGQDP

Row | SMILES | IC50 (sigma binding site) | RQNB % Inhibition @ 1 μM [1]
1 | CCCN1CCC=C(C2=NOC(c3ccccc3)C2)C1 (stereo not shown) [Example 1, 3-[3'-(1'-propyl-1', 2', 5', 6'-tetrahydropyridinyl)]-5-phenyl-2-isoxazoline] | 7.05 nM | 10%
2 | CCCN1CCC=C(C2=NOC(c3ccc(OC)cc3)C2)C1 (stereo not shown) [Example 2, 3-[3'-(1'-Propyl-1', 2', 5', 6'-tetrahydropyridinyl) ]-5-(4'-methoxyphenyl)-2-isoxazoline] | 39.1 nM | 7%
3 | CCCN1CCC=C(C2=NOC(c3ccc(Cl)cc3)C2)C1 (stereo not shown) [Example 3, 3-[3'-(1'-Propyl-1', 2', 5', 6'-tetrahydropyridinyl)]-5-(4'-chlorophenyl)-2-isoxazoline] | 1.03 nM | 22%
4 | CCCN1CCC=C(c2cc(-c3ccccc3)no2)C1 [Example 4A, 3-phenyl-5-[3'-(1'-propyl-1', 2', 5', 6'-tetrahydropyridinyl)]isoxazole oxalate] | 0.78 nM | 10%
5 | CCCN1CCC=C(c2cc(-c3ccc(C)cc3)no2)C1 [Example 5A, 3-(4'-Methylphenyl)-5-[3'-(1'-propyl-1', 2', 5', 6'-tetrahydropyridinyl)]isoxazole oxalate] | 0.067 nM | 10%
6 | CCCN1CCC=C(c2cc(-c3ccc(C)cc3)on2)C1 [Example 5B, 3-[3'-(1'-propyl-1', 2', 5', 6'-tetrahydropyridinyl)]-5-(4'-methylphenyl)isoxazole oxalate] | 0.62 nM | 6%
7 | CCCN1CCC=C(c2cc(-c3ccccc3C)no2)C1 [Example 8A, 3-(2'-Methylphenyl)-5-[3'-(1'-propyl-1', 2', 5', 6'-tetrahydropyridinyl)]isoxazole oxalate] | 3640 nM | 40%
8 | CCCN1CCC=C(c2cc(-c3ccccc3C)on2)C1 [Example 8B, 3-[3'-(1'-propyl-1', 2', 5', 6'-tetrahydropyridinyl)]-5-(2'-methylphenyl)isoxazole oxalate] | 546 nM | 12%
9 | CCCN1CCC=C(c2cc(-c3ccccc3OC)no2)C1 [Example 9A, 3-(2'-Methoxyphenyl)-5-[3'-(1'-propyl-1', 2', 5', 6'-tetrahydropyridinyl)]isoxazole oxalate] | > 10000 nM | 23%

Now from value to compound:

Row | IC50 (sigma binding site) | RQNB % Inhibition @ 1 μM [1] | SMILES
10 | 8.8 nM | 4% | CCCN1CCC=C(c2cc(-c3ccccc3)on2)C1 [Example 4B, 3-[3'-(1'-propyl-1', 2', 5', 6'-tetrahydropyridinyl)]-5-phenylisoxazole oxalate]
11 | 4 nM | 15% | CCCN1CCC=C(c2cc(-c3cccc(OC)c3)no2)C1 [Example 6A, 3-(3'-Methoxyphenyl)-5-[3'-(1'-propyl-1', 2', 5', 6'-tetrahydropyridinyl)]isoxazole oxalate]
12 | 0.1 nM | 7% | CCCN1CCC=C(c2cc(-c3cccc(OC)c3)on2)C1 [Example 6B, 3-[3'-(1'-propyl-1', 2', 5', 6'-tetrahydropyridinyl)]-5-(3'-methoxyphenyl)isoxazole oxalate]
13 | 0.45 nM | 10% | CCCN1CCC=C(c2cc(-c3cccc(C)c3)no2)C1 [Example 7A, 3-(3'-Methylphenyl)-5-[3'-(1'-propyl-1', 2', 5', 6'-tetrahydropyridinyl)]isoxazole oxalate]
14 | 9.9 nM | 10% | CCCN1CCC=C(c2cc(-c3cccc(C)c3)on2)C1 [Example 7B, 3-[3'-(1'-propyl-1', 2', 5', 6'-tetrahydropyridinyl)]-5-(3'-methylphenyl)isoxazole oxalate]
15 | 10000 nM | 12% | CCCN1CCC=C(c2cc(-c3ccccc3OC)on2)C1 [Example 9B, 3-[3'-(1'-propyl-1', 2', 5', 6'-tetrahydropyridinyl)]-5-(2'-methoxyphenyl)isoxazole oxalate]
16 | 10000 nM | 11% | CCCN1CCC=C(c2cc(-c3ccc(OC)cc3)no2)C1 [Example 14A, 3-(4'-Methoxyphenyl)-5-[3'-(1'-propyl-1', 2', 5', 6'-tetrahydropyridinyl)]isoxazole oxalate]
17 | 1470 nM | 9% | CCCN1CCC=C(c2cc(-c3ccc(OC)cc3)on2)C1 [Example 14B, 3-[3'-(1'-propyl-1', 2', 5', 6'-tetrahydropyridinyl)]-5-(4'-methoxyphenyl)isoxazole oxalate]
